Results: patent US20260347373A1, “HETEROCYCLIC COMPOUNDS, COMPOSITIONS THEREOF, AND METHODS OF TREATMENT THEREWITH” (BeOne Medicines I GmbH, priority 2023, published 2026)

What was measured:
WT KRAS = WT KRAS (Homo sapiens, UniProt P01116); assay: KRAS WT Probe Displacement Assay (TR-FRET, GDP-loaded); assay type: binding; details: KRAS WT, read-out: KRAS^WT Probe Displacement Assay IC50
Description: (§1) The synthetic routes of probe 1 and 2, which have been disclosed in PCT/CN2022/070676, are hereby incorporated herein.

KRAS G12D = KRAS G12D (Homo sapiens, UniProt P01116, G12D); assay: KRAS G12D Probe Displacement Assay (TR-FRET, GDP-loaded); assay type: binding; details: KRAS G12D, read-out: KRAS^G12D Probe Displacement Assay IC50
Description: as §1

WT KRAS, sequence (P01116 1-188 isoform P01116-2): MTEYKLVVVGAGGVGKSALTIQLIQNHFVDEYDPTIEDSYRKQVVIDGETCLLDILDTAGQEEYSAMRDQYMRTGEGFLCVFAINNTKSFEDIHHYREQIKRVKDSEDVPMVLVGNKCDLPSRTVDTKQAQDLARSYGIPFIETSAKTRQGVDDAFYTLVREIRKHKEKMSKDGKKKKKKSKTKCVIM
KRAS G12D, sequence (P01116 1-188 isoform P01116-2 G12D): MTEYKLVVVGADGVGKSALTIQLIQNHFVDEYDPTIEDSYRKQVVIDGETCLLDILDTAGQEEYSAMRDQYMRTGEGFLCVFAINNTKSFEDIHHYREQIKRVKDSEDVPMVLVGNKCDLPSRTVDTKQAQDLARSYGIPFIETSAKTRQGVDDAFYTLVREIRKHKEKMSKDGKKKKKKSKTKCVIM

SMILES	IC50 (WT KRAS)	IC50 (KRAS G12D)
Cc1cc(N)cc(-c2nc3c4c(nc(OCC5(CN6CCOC[C@H]6C)CC5)nc4c2F)N2C[C@H]4CC[C@H](N4)[C@H]2CCO3)c1C(F)(F)F [Example 163, 3-((6aR,7S,10R)-1-fluoro-13-((1-(((R)-3-methylmorpholino)methyl)cyclopropyl)methoxy)-5,6,6a,7,8,9,10,11-octahydro-4-oxa-3,11a,12,14,15-pentaaza-7,10-methanocyclohepta[4,5]cycloocta[1,2,3-de]naphthalen-2-yl)-5-methyl-4-(trifluoromethyl)aniline]	3 to 1000 nM	< 0.3 nM
Cc1cc(N)cc(-c2nc3c4c(nc(OCC5(CN6CCOC[C@@H]6C)CC5)nc4c2F)N2C[C@H]4CC[C@H](N4)[C@H]2CCO3)c1C(F)(F)F [Example 164, 3-((6aR,7S,10R)-1-fluoro-13-((1-(((S)-3-methylmorpholino)methyl)cyclopropyl)methoxy)-5,6,6a,7,8,9,10,11-octahydro-4-oxa-3,11a,12,14,15-pentaaza-7,10-methanocyclohepta[4,5]cycloocta[1,2,3-de]naphthalen-2-yl)-5-methyl-4-(trifluoromethyl)aniline]	3 to 1000 nM	< 0.3 nM
Cc1cc(N)cc(-c2nc3c4c(nc(OCC5(CN6CCC(C#N)CC6)CC5)nc4c2F)N2C[C@H]4CC[C@H](N4)[C@H]2CCO3)c1C(F)(F)F [Example 165, 1-((1-((((6aR,7S,10R)-2-(5-amino-3-methyl-2-(trifluoromethyl)phenyl)-1-fluoro-5,6,6a,7,8,9,10,11-octahydro-4-oxa-3,11a,12,14,15-pentaaza-7,10-methanocyclohepta[4,5]cycloocta[1,2,3-de]naphthalen-13-yl)oxy)methyl)cyclopropyl)methyl)piperidine-4-carbonitrile]	0.3 to 3 nM	< 0.3 nM
Cc1cc(N)cc(-c2nc3c4c(nc(OCC5(CN6CCC(C#N)C6)CC5)nc4c2F)N2C[C@H]4CC[C@H](N4)[C@H]2CCO3)c1C(F)(F)F (stereo partly drawn) [Example 166, 1-((1-((((6aR,7S,10R)-2-(5-amino-3-methyl-2-(trifluoromethyl)phenyl)-1-fluoro-5,6,6a,7,8,9,10,11-octahydro-4-oxa-3,11a,12,14,15-pentaaza-7,10-methanocyclohepta[4,5]cycloocta[1,2,3-de]naphthalen-13-yl)oxy)methyl)cyclopropyl)methyl)pyrrolidine-3-carbonitrile]	3 to 1000 nM	< 0.3 nM
Cc1cc(N)cc(-c2nc3c4c(nc(OCC5(CN6CCC(C)(C#N)C6)CC5)nc4c2F)N2C[C@H]4CC[C@H](N4)[C@H]2CCO3)c1C(F)(F)F (stereo partly drawn) [Example 167, 1-((1-((((6aR,7S,10R)-2-(5-amino-3-methyl-2-(trifluoromethyl)phenyl)-1-fluoro-5,6,6a,7,8,9,10,11-octahydro-4-oxa-3,11a,12,14,15-pentaaza-7,10-methanocyclohepta[4,5]cycloocta[1,2,3-de]naphthalen-13-yl)oxy)methyl)cyclopropyl)methyl)-3-methylpyrrolidine-3-carbonitrile]	0.3 to 3 nM	< 0.3 nM
Cc1cc(N)cc(-c2nc3c4c(nc(OCC5(CN6CC7C(C6)C7(F)F)CC5)nc4c2F)N2C[C@H]4CC[C@H](N4)[C@H]2CCO3)c1C(F)(F)F (stereo partly drawn) [Example 168, 3-((6aR,7S,10R)-13-((1-((6,6-difluoro-3-azabicyclo[3.1.0]hexan-3-yl)methyl)cyclopropyl)methoxy)-1-fluoro-5,6,6a,7,8,9,10,11-octahydro-4-oxa-3,11a,12,14,15-pentaaza-7,10-methanocyclohepta[4,5]cycloocta[1,2,3-de]naphthalen-2-yl)-5-methyl-4-(trifluoromethyl)aniline]	3 to 1000 nM	< 0.3 nM
